Experiments:
h-DHODH = target: T1, h-DHODH (Homo sapiens, UniProt Q02127); experiment: Dihydro-orotate dehydrogenase inhibition assay (U937 membrane preparations, DCIP reduction); type: biochemical; settings: U937 membrane preparation; for inhibition at 0.3 µM: compound tested at 0.3 uM (footnote *)
T1 construct: endogenous in cells; host or cells: U937 cells (membrane fraction, solubilised with 1% octyl glucoside)
Summary of the method: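 Detergent (1% octyl glucoside) extract of U937 cell membranes; dihydro-orotate-driven DCIP reduction followed as absorbance change at 600 nm after 4 h at 37° C. IC50 derived from percent inhibition of […].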

IL-17 = experiment: Inhibition of IL-17 release from mouse splenocytes (PMA + ionomycin, ELISA); type: cell-based, Balb/c mice; settings: Splenocyte, 3 h
Summary of the method: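 Balb/c splenocytes (1×10^6 cells/ml, RPMI) were pretreated with inhibitor for 15 min, then stimulated with 10 ng/ml PMA plus 1 μM ionomycin. Supernatant IL-17 was measured by ELISA after 3 h. IC50 was derived from percent inhibition relative to control.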

[1] = Single dose oral hepatotoxicity assay; type: in vivo, BALB/cJ mice; settings: serum, 24 hr after 100 mg/kg po single dose, mice
Description: 5. Single Dose Oral Hepatotoxicity Assay:
BALB/cJ (n=4 or 5/sex) mice aged 8 to 10 weeks, with weights ranging from 18 to 25 g were used. They were housed under conditions of controlled temperature and humidity and a 12-h light/dark cycle. They were given continuous access to bottled spring water and fed a standard chow at ad libitum. The mice were allowed to acclimate for 1 week before use. On the day of experiment mice were fasted overnight for 12 h and administered with test item formulation (100 mg/kg·b·wt/po) or vehicle (10 ml/kg·b·wt/po) by oral route and food was given 4 hr after test item administration. After 24 hr post administration blood samples were collected from orbital sinus of all the animals and serum was separated to assess the hepatotoxicity. Biochemical evaluation of liver function was determined by measuring serum enzyme activities of alanine aminotransferase (ALT) and aspartate aminotransferase (AST) using commercially available kits from Sigma (St. Louis, Mo.).

IL17 = experiment: Inhibition of PHA induced cytokine (IL17) release in PBMC; type: cell-based; settings: Homo sapiens, 48 h, ELISA
Description: b. Inhibition of PHA Induced Cytokine (IL17) Release:
(§1) PBMC from freshly collected HWB were isolated by density gradient using Histopaque and seeded in a 96-well plate. Wells were incubated with desired concentrations of the inhibitor for 15 min. Proliferation was induced by the addition of 2 μM Phytohemagglutinin at 37° C. in an atmosphere containing 95% CO2. Supernatant was collected after 48 h for estimation of cytokines by ELISA. Data were analyzed using GraphPad Prism. Percent inhibition and IC50 values for each compound were determined based on the percent inhibition due to the test compound compared to the control.

HIV = settings: at a concentration that can be obtained with conventional dosing; cited from earlier work
[2] = patients; cited from earlier work
CD4+ cell [3] = experiment: Inhibition of PHA induced CD4+ cell proliferation in PBMC; type: cell-based; settings: Homo sapiens, isolated PBMC, 48 h, flow cytometry
Description: d. Inhibition of PHA Induced CD4+ Cell Proliferation in PBMC:
(§2) Isolated PBMC were treated with desired concentration of inhibitor and induced with 5 μM PHA. % CD4+ cell viability was determined after 48 h by flow cytometry. Data were analyzed using GraphPad Prism. IC50 values for each compound were determined based on the percent inhibition due to the test compound compared to the control.

PBMC = experiment: Inhibition of PHA induced PBMC proliferation (MTT); type: cell-based; settings: Homo sapiens, 48 h
Description: a. Inhibition of PHA Induced PBMC Proliferation:
as §1, with “HWB was” for “HWB were”, “[…]. Viability” for “CO2. Supernatant”, “was determined” for “was collected”, “h using an 3-(4,5-Dimethylthiazol-2-yl)-2,5-diphenyltetrazolium bromide (MTT) assay.” for “h for estimation of cytokines by ELISA.”, “Prism. percent” for “Prism. Percent”, “inhibition and/or GI50” for “inhibition and IC50”

CD4+ cell [4] = experiment: Inhibition of PHA induced CD4+ cell proliferation in human whole blood; type: cell-based; settings: 48 h, flow cytometry
Description: c. Inhibition of PHA Induced CD4+ Cell Proliferation in Human Whole Blood:
as §2, with “HWB or” for “Isolated PBMC”, “Prism. Percent inhibition and” for “Prism.”

IL-17 secreting cells = experiment: Determination of IL-17 producing cells by flow cytometry in PBMC; type: cell-based; settings: human PBMC, Cytostim, 4 h, read-out: inhibition of IL17 (IL-17 secreting cells normalized to total CD4+ cells)
Description: 3. Determination of IL-17 Producing Cells by Flow Cytometry:
PBMC isolated from human blood were stimulated and treated with desired concentrations of the test compounds prior to stimulation with Cytostim (Milteny Biotech, Germany). After 4 h, IL-17 secreting cells were stained using the IL-17 secretion assay kit as per the manufacturer's instruction and normalized to total CD4+ cells within the PBMC population. Data were analyzed using Graph pad prism.

T1 sequence (Q02127 whole entry): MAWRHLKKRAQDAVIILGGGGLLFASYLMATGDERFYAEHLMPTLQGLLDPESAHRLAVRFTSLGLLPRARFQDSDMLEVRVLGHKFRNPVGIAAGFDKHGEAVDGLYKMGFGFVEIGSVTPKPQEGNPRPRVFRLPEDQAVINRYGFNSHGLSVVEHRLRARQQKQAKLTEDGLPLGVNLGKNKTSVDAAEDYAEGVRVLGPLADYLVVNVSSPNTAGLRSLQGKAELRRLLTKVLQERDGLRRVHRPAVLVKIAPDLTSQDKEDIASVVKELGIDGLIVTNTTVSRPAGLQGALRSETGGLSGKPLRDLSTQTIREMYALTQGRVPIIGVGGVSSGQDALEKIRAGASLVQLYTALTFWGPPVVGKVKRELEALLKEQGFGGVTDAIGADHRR

Q: Which inhibition at 1 µM (h-DHODH) does the source give for `CCOc1cccc(-c2cc(F)c(NC(=O)c3ccccc3C(=O)O)c(F)c2)c1` [Example 5, 2-(3′-Ethoxy-3,5-difluorobiphenyl-4-ylcarbamoyl)benzoic acid] here?
A: Its inhibition at 1 µM is 85.7%.

Q: What about the IC50 (h-DHODH) of the same compound?
A: Its IC50 is 49.8 nM.

Q: What about the inhibition at 10 µM (IL-17) of the same compound?
A: Its inhibition at 10 µM is 30.8%.

Q: And the ALT [1]?
A: Its ALT is 113.6 U/L.

Q: And the AST [1]?
A: The AST was 137.8 U/L.

Q: What about the inhibition at 10 µM (IL17) of the same compound?
A: Its inhibition at 10 µM is over 50%.

Q: And the melting point?
A: Its melting point is 136 to 141 °C.

Q: Which “reduction of HIV replication” value (HIV) does the source give for `Cc1oncc1C(=O)Nc1ccc(C(F)(F)F)cc1` [leflunomide, Leflunomide] here?
A: Its value is “about 75%”.

Q: And the half-life time [2]?
A: The half-life time was “approximately 2 weeks”.

Q: Which results are given for `CCc1c[nH]c2ccc(-c3cc(F)c(NC(=O)c4ccccc4C(=O)O)c(F)c3)cc12` [Example 75, 2-[4-(3-ethyl-1H-indol-5-yl)-2,6-difluorophenylcarbamoyl]benzoic acid]?
A: IC50 (h-DHODH): 1.52 nM; inhibition at 0.3 µM (h-DHODH): 100%; inhibition at 1 µM (CD4+ cell [3]): > 90%; inhibition at 10 µM (PBMC): > 70%; inhibition at 10 µM (IL-17): 29.4%; IC50 (IL-17): 32900 nM; ALT [1]: 93.9 U/L; AST [1]: 210.8 U/L; melting point: 157.9 to 160.9 °C; inhibition at 1 µM (CD4+ cell [4]): > 65%

Q: For `CCCCOc1cccc(-c2cc(F)c(NC(=O)c3ccccc3C(=O)O)c(Cl)c2)c1` [Example 29, 2-(3′-butoxy-3-chloro-5-fluorobiphenyl-4-ylcarbamoyl)benzoic acid], which inhibition at 1 µM (h-DHODH) is on record?
A: Its inhibition at 1 µM is 94%.

Q: What about the IC50 (h-DHODH) of the same compound?
A: The IC50 was 7.93 nM.

Q: What about the inhibition at 1 µM (CD4+ cell [3]) of the same compound?
A: The inhibition at 1 µM was over 90%.

Q: And the inhibition at 10 µM (PBMC)?
A: The inhibition at 10 µM was over 70%.

Q: What about the inhibition at 10 µM (IL-17) of the same compound?
A: The inhibition at 10 µM was 46.1%.

Q: What about the IC50 (IL-17) of the same compound?
A: The IC50 was 18800 nM.

Q: And the inhibition at 1 µM (IL-17 secreting cells)?
A: Its inhibition at 1 µM is 43.6%.

Q: What about the ALT [1] of the same compound?
A: The ALT was 67.9 U/L.

Q: And the AST [1]?
A: The AST was 114.4 U/L.

Q: And the melting point?
A: The melting point was 128 to 130 °C.

Q: What about the inhibition at 1 µM (CD4+ cell [4]) of the same compound?
A: Its inhibition at 1 µM is over 65%.

Q: Which inhibition at 1 µM (h-DHODH) does the source give for `CCOc1cccc(-c2ccc(NC(=O)c3ccccc3C(=O)O)cc2)c1` [Example 70, 2-(3′-ethoxybiphenyl-4-ylcarbamoyl)benzoic acid] here?
A: The inhibition at 1 µM was 14%.

Q: What about the inhibition at 10 µM (IL-17) of the same compound?
A: The inhibition at 10 µM was 48.4%.

Q: And the IC50 (IL-17)?
A: The IC50 was 9110 nM.

Q: What about the ALT [1] of the same compound?
A: Its ALT is 84 U/L.

Q: And the AST [1]?
A: The AST was 210.4 U/L.

Q: Which inhibition at 1 µM (h-DHODH) does the source give for `CCCOc1cccc(-c2cc(F)c(NC(=O)c3ccccc3C(=O)O)c(Cl)c2)c1` [Example 19, 2-(3-Chloro-5-fluoro-3′-propoxybiphenyl-4-ylcarbamoyl)benzoic acid] here?
A: The inhibition at 1 µM was 82.2%.

Q: And the IC50 (h-DHODH)?
A: Its IC50 is 44.6 nM.

Q: And the inhibition at 10 µM (IL-17)?
A: The inhibition at 10 µM was 19%.

Q: And the ALT [1]?
A: Its ALT is 87.9 U/L.

Q: And the AST [1]?
A: The AST was 126.5 U/L.

Q: What about the melting point of the same compound?
A: The melting point was 144 to 148 °C.

Q: Which results are given for `CCCCOc1cccc(-c2cc(F)c(NC(=O)c3ccccc3C(=O)O)c(F)c2)c1` [Example 35, 2-(3′-Butoxy-3,5-difluorobiphenyl-4-ylcarbamoyl)benzoic acid]?
A: inhibition at 1 µM (h-DHODH): 86.5%; IC50 (h-DHODH): 11.9 nM; inhibition at 10 µM (IL-17): 7.76%; ALT [1]: 108.3 U/L; AST [1]: 172 U/L; melting point: 119.3 to 123.3 °C

Q: With `CC(C)COc1cccc(-c2cc(F)c(NC(=O)c3ccccc3C(=O)O)c(Cl)c2)c1` [Example 31, 2-(3-Chloro-5-fluoro-3′-isobutoxybiphenyl-4-ylcarbamoyl)benzoic acid] as the compound, how does the inhibition at 1 µM (h-DHODH) read?
A: The inhibition at 1 µM was 73.5%.

Q: What about the IC50 (h-DHODH) of the same compound?
A: The IC50 was 44.6 nM.

Q: And the inhibition at 10 µM (IL-17)?
A: The inhibition at 10 µM was 21.1%.

Q: And the ALT [1]?
A: The ALT was 65.1 U/L.

Q: What about the AST [1] of the same compound?
A: Its AST is 161.4 U/L.

Q: What about the melting point of the same compound?
A: The melting point was 202 to 205.5 °C.

Q: What does the source list for `O=C(O)c1ccccc1C(=O)Nc1c(F)cc(-c2cccc(OC3CCCC3)c2)cc1Cl` [Example 42, 2-(3-Chloro-3′-(cyclopentyloxy)-5-fluorobiphenyl-4-ylcarbamoyl)benzoic acid]?
A: inhibition at 1 µM (h-DHODH): 76.9%; IC50 (h-DHODH): 24 nM; inhibition at 10 µM (PBMC): > 70%; inhibition at 10 µM (IL-17): 22.3%; ALT [1]: 113 U/L; AST [1]: 189.6 U/L; melting point: 122 to 126 °C

Q: For `CCCOc1cccc(-c2cc(F)c(NC(=O)c3ccccc3C(=O)O)c(F)c2)c1` [Example 26, 2-(3,5-Difluoro-3′-propoxybiphenyl-4-ylcarbamoyl)benzoic acid], which inhibition at 1 µM (h-DHODH) is on record?
A: Its inhibition at 1 µM is 85.3%.

Q: And the IC50 (h-DHODH)?
A: Its IC50 is 122 nM.

Q: What about the inhibition at 10 µM (IL-17) of the same compound?
A: Its inhibition at 10 µM is 8.7%.

Q: What about the melting point of the same compound?
A: Its melting point is 128.6 to 132.1 °C.

Q: With `CCSc1cccc(-c2c(F)c(F)c(NC(=O)c3ccccc3C(=O)O)c(F)c2F)c1` [Example 78, 2-[3′-(ethylthio)-2,3,5,6-tetrafluorobiphenyl-4-ylcarbamoyl]benzoic acid] as the compound, how does the inhibition at 0.3 µM (h-DHODH) read?
A: Its inhibition at 0.3 µM is 32.9%.

Q: What about the inhibition at 10 µM (IL-17) of the same compound?
A: The inhibition at 10 µM was 11.1%.

Q: And the melting point?
A: Its melting point is 158 to 160 °C.

Q: Which results are given for `CC(C)Oc1cccc(-c2cc(F)c(NC(=O)c3ccccc3C(=O)O)c(F)c2)c1` [Example 25, 2-(3,5-Difluoro-3′-isopropoxybiphenyl-4-ylcarbamoyl)benzoic acid]?
A: inhibition at 1 µM (h-DHODH): 60.2%; inhibition at 10 µM (IL-17): 17.5%; melting point: 122 to 125 °C

From patent publication US8686048B2, “Immunomodulator and anti-inflammatory compounds” (Rhizen Pharmaceuticals SA, priority 2010, dated 2014)
